According to ChEMBL document CHEMBL5385943, “Synthesis, biological evaluation and molecular docking study of pyrimidine linked thiazolidinedione derivatives as potential antimicrobial and antitubercular agents” (Bioorg Med Chem Lett, 2024):
Values after ≈ are worked out from the molar mass of the structure shown. Active and inactive are the calls of the source. No cut-off for these calls is given here.

Key:
[1] = Cytotoxicity against human WI-38 cells assessed as reduction in cell growth; assay type: toxicity, cell-based
[2] = Selectivity index, ratio of CC50 for human WI-38 cells to MIC for Mycobacterium tuberculosis H37Rv; assay type: toxicity; details: read-out: Selectivity Index
Bacillus subtilis = assay: Antimicrobial activity against Bacillus subtilis assessed as reduction in microbial growth; assay type: functional
Candida albicans = assay: Antimicrobial activity against Candida albicans assessed as reduction in microbial growth; assay type: functional
Staphylococcus aureus [3] = assay: Antimicrobial activity against Staphylococcus aureus assessed as reduction in microbial growth; assay type: functional
Staphylococcus aureus [4] = assay: Antimicrobial activity against methicillin-resistant Staphylococcus aureus assessed as reduction in microbial growth; assay type: functional
[5] = tested on: Mycobacterium tuberculosis; assay: Antitubercular activity against Mycobacterium tuberculosis H37Rv by agar dilution method; assay type: functional
Escherichia coli [6] = assay: Antimicrobial activity against Escherichia coli assessed as reduction in microbial growth; assay type: functional
Staphylococcus aureus [7] = assay: Antibacterial activity against methicillin resistant Staphylococcus aureus at 1 times MIC measured after 120 to 150 mins by time kill assay; assay type: functional, organism-based; details: time 120-150 min
Escherichia coli [8] = assay: Antibacterial activity against Escherichia coli at 1 times MIC measured after 120 to 150 mins by time kill assay; assay type: functional, organism-based; details: time 120-150 min
Staphylococcus aureus [9] = assay: Antibacterial activity against methicillin resistant Staphylococcus aureus at 1 times MIC measured after 150 mins by time kill assay; assay type: functional, organism-based
Escherichia coli [10] = assay: Antibacterial activity against Escherichia coli at 1 times MIC measured after 150 mins by time kill assay; assay type: functional, organism-based
Staphylococcus aureus [11] = assay: Antibacterial activity against methicillin resistant Staphylococcus aureus at 1 times MIC measured after 180 mins by time kill assay; assay type: functional, organism-based

Compound	CC50 [1] [µM]	selectivity ratio [2]	MIC (Bacillus subtilis) [µM]	MIC (Candida albicans) [µM]	MIC (Staphylococcus aureus [3]) [µM]	MIC (Staphylococcus aureus [4]) [µM]	MIC [5] [µM]	MIC (Escherichia coli [6]) [µM]	Activity (Staphylococcus aureus [7])	Activity (Escherichia coli [8])	Activity (Staphylococcus aureus [9])	Activity (Escherichia coli [10])	Activity (Staphylococcus aureus [11])
O=C1S/C(=C\c2cnc(C(F)(F)F)nc2)C(=O)N1C(=O)c1ccc(F)cc1	> 50	15.4	12.8	16.8	13.7	31.7	3.25 (≈ 1.29 µg/mL)	15.1					
O=C1S/C(=C\c2cnc(C(F)(F)F)nc2)C(=O)N1C(=O)c1ccc(C(F)(F)F)cc1	> 50	227	6.1	8.1	6.4	10.8	0.22 (≈ 0.0984 µg/mL)	8.4	Active	Active			
O=C1S/C(=C\c2cnc(C(F)(F)F)nc2)C(=O)N1C(=O)c1cc(F)cc(F)c1	> 50	70.4	9.7	11.8	10.3	21.9	0.71 (≈ 0.295 µg/mL)	11.2					
GENTAMICIN											inactive		
O=C1S/C(=C\c2cnc(C(F)(F)F)nc2)C(=O)N1C(=O)c1ccc(Br)cc1	> 50	8.17	17.3	4.7	20.7	48.2	6.12 (≈ 2.8 µg/mL)	22.6					
CN[C@@H]1[C@H](O[C@H]2[C@H](O[C@H]3[C@H](O)[C@@H](O)[C@H](N=C(N)N)[C@@H](O)[C@@H]3N=C(N)N)O[C@@H](C)[C@]2(O)C=O)O[C@@H](CO)[C@H](O)[C@H]1O [STREPTOMYCIN]			11.5		11.9			14.3					
CC(=O)NC[C@H]1CN(c2ccc(N3CCOCC3)c(F)c2)C(=O)O1 [LINEZOLID]						23.1							
NNC(=O)c1ccncc1 [ISONIAZID]	> 50	143					0.35 (≈ 0.048 µg/mL)						
O=C1S/C(=C\c2cnc(C(F)(F)F)nc2)C(=O)N1C(=O)c1ccc(Cl)cc1	> 50	10.3	14.4	19.4	16.8	36.4	4.83 (≈ 2 µg/mL)	17.8					
Cc1ccc(C(=O)N2C(=O)S/C(=C\c3cnc(C(F)(F)F)nc3)C2=O)cc1	> 50	5.89	24.9	41.3	30.6	71.8	8.49 (≈ 3.34 µg/mL)	35.8					
O=C1S/C(=C\c2cnc(C(F)(F)F)nc2)C(=O)N1C(=O)c1ccc(O)cc1	> 50	4.58	28.3	53.7	37.4	79.2	10.9 (≈ 4.31 µg/mL)	40.9					
OC(Cn1cncn1)(Cn1cncn1)c1ccc(F)cc1F [FLUCONAZOLE]				14.9									
O=C1S/C(=C\c2cnc(C(F)(F)F)nc2)C(=O)N1C(=O)c1ccccc1	> 50	8.89	19.5	30.6	27.1	62.5	5.62 (≈ 2.13 µg/mL)	28.3					
O=C1S/C(=C\c2cnc(C(F)(F)F)nc2)C(=O)N1C(=O)c1ccc([N+](=O)[O-])cc1	> 50	47.2	10.2	12.9	10.9	24.1	1.06 (≈ 0.45 µg/mL)	11.7					
O=C1S/C(=C\c2cnc(C(F)(F)F)nc2)C(=O)N1C(=O)c1cc(F)c(F)c(F)c1	> 50	156	8.1	9.5	8.6	15.4	0.32 (≈ 0.139 µg/mL)	9.7				Active	Active
